# Active and inactive are the calls of the source. The rule behind the calls is not given here.
# Molecular target: T1, Estrogen receptor (Homo sapiens) (UniProt P03372)
# T1 sequence (whole entry): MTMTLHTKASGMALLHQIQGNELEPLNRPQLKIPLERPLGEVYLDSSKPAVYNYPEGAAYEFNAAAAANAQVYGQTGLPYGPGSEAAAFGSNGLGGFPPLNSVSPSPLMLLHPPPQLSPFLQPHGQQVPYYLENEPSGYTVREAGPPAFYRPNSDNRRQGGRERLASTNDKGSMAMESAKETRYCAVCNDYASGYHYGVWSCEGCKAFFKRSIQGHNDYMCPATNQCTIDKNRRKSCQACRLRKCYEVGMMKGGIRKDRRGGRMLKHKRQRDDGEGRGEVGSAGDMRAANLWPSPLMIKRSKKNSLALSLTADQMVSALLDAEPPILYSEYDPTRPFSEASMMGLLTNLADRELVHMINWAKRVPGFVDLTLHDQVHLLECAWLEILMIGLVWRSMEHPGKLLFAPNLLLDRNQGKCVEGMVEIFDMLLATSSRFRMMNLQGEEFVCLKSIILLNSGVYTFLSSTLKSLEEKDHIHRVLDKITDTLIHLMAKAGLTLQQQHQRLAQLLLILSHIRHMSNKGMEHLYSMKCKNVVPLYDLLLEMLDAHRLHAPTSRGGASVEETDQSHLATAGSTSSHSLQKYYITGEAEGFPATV
# Experiment: Induction of estrogen receptor-mediated compound internalization in human MCF-7 cells at 10 umol by fluorescence microscopy
# Assay type: cell-based
# Conditions: MCF7
row,Activity,Structure (SMILES)
1,inactive,C=CC1=C(C)c2cc3[nH]c(c4c5nc(cc6[nH]c(cc1n2)c(C)c6CC)C(C)=C5C(=O)C4)[C@@H](CCC(=O)O)[C@@H]3C
2,Active,C=CC1=C(C)c2cc3[nH]c(c4c5nc(cc6[nH]c(cc1n2)c(C)c6CC)C(C)=C5C(=O)C4)[C@@H](CCC(=O)OCCC#C[C@]1(O)CC[C@H]2[C@@H]4CCc5cc(O)ccc5[C@H]4CC[C@@]21C)[C@@H]3C
